Test results as given in ChEMBL document CHEMBL3045600, “Synthesis and Fungicidal Activities of Phenoxyphenyl Alkoxyiminoacetamide Derivatives” (J Pestic Sci, 1998).

Experiments:
Format in all cases: functional
[1] = system: Thanatephorus cucumeris; experiment: Fungicidal activity against Thanatephorus cucumeris assessed as rice sheath blight disease control at 31.3 ppm foliar application for 24 hr before inoculation at 26 +- 2 measured after 5 days by preventive manner
[2] = system: Thanatephorus cucumeris; experiment: Fungicidal activity against Thanatephorus cucumeris assessed as rice sheath blight disease control at 7.8 ppm foliar application for 24 hr before inoculation at 26 +- 2 measured after 5 days by preventive manner
[3] = system: Thanatephorus cucumeris; experiment: Fungicidal activity against Thanatephorus cucumeris assessed as rice sheath blight disease control at 2 ppm foliar application for 24 hr before inoculation at 26 +- 2 measured after 5 days by preventive manner
[4] = system: Podosphaera fuliginea; experiment: Fungicidal activity against Podosphaera fuliginea assessed as cucumber powdery mildew control under greenhouse at 7.8 ppm foliar application 24 hr after inoculation on upper surface of leaf at 23 +/- 2 degC by curative manner
[5] = system: Podosphaera fuliginea; experiment: Fungicidal activity against Podosphaera fuliginea assessed as cucumber powdery mildew control under greenhouse at 2 ppm foliar application 24 hr after inoculation on upper surface of leaf at 23 +/- 2 degC by curative manner
[6] = system: Pyricularia oryzae; experiment: Fungicidal activity against Magnaporthe oryzae assessed as rice blast disease control at 10 ppm submerged application measured after 7 days
[7] = system: Pyricularia oryzae; experiment: Fungicidal activity against Magnaporthe oryzae assessed as rice blast disease control at 2.5 ppm submerged application measured after 7 days
[8] = system: Pyricularia oryzae; experiment: Fungicidal activity against Magnaporthe oryzae assessed as rice blast disease control at 0.63 ppm submerged application measured after 7 days
[9] = system: Pyricularia oryzae; experiment: Fungicidal activity against Magnaporthe oryzae assessed as rice blast disease control at 0.16 ppm submerged application measured after 7 days
[10] = system: Pseudoperonospora cubensis; experiment: Fungicidal activity against Pseudoperonospora cubensis assessed as cucumber downy mildew disease control at 125 ppm foliar application 24 hr before inoculation on upper surface of leaf by preventive manner
[11] = system: Pseudoperonospora cubensis; experiment: Fungicidal activity against Pseudoperonospora cubensis assessed as cucumber downy mildew disease control at 31.3 ppm foliar application 24 hr before inoculation on upper surface of leaf by preventive manner
[12] = system: Pseudoperonospora cubensis; experiment: Fungicidal activity against Pseudoperonospora cubensis assessed as cucumber downy mildew disease control at 7.8 ppm foliar application 24 hr before inoculation on upper surface of leaf by preventive manner
[13] = system: Pseudoperonospora cubensis; experiment: Fungicidal activity against Pseudoperonospora cubensis assessed as cucumber downy mildew disease control at 2 ppm foliar application 24 hr before inoculation on upper surface of leaf by preventive manner
[14] = system: Podosphaera fuliginea; experiment: Fungicidal activity against Podosphaera fuliginea assessed as cucumber powdery mildew control under greenhouse at 125 ppm foliar application 24 hr before inoculation on upper surface of leaf at 23 +/- 2 degC by preventive manner
[15] = system: Podosphaera fuliginea; experiment: Fungicidal activity against Podosphaera fuliginea assessed as cucumber powdery mildew control under greenhouse at 31.3 ppm foliar application 24 hr before inoculation on upper surface of leaf at 23 +/- 2 degC by preventive manner
[16] = system: Podosphaera fuliginea; experiment: Fungicidal activity against Podosphaera fuliginea assessed as cucumber powdery mildew control under greenhouse at 7.8 ppm foliar application 24 hr before inoculation on upper surface of leaf at 23 +/- 2 degC by preventive manner
[17] = system: Podosphaera fuliginea; experiment: Fungicidal activity against Podosphaera fuliginea assessed as cucumber powdery mildew control under greenhouse at 2 ppm foliar application 24 hr before inoculation on upper surface of leaf at 23 +/- 2 degC by preventive manner
[18] = system: Thanatephorus cucumeris; experiment: Fungicidal activity against Thanatephorus cucumeris assessed as rice sheath blight disease control at 125 ppm foliar application for 24 hr before inoculation at 26 +- 2 measured after 5 days by preventive manner
[19] = system: Botrytis cinerea; experiment: Fungicidal activity against Botryotinia fuckeliana assessed as cucumber gray mold disease control at 31.3 ppm foliar application 24 hr after inoculation at 22 +/- 2 degC measured after 3 days by curative manner
[20] = system: Botrytis cinerea; experiment: Fungicidal activity against Botryotinia fuckeliana assessed as cucumber gray mold disease control at 7.8 ppm foliar application 24 hr after inoculation at 22 +/- 2 degC measured after 3 days by curative manner
[21] = system: Botrytis cinerea; experiment: Fungicidal activity against Botryotinia fuckeliana assessed as cucumber gray mold disease control at 2 ppm foliar application 24 hr after inoculation at 22 +/- 2 degC measured after 3 days by curative manner
[22] = system: Podosphaera fuliginea; experiment: Fungicidal activity against Podosphaera fuliginea assessed as cucumber powdery mildew control under greenhouse at 125 ppm foliar application 24 hr after inoculation on upper surface of leaf at 23 +/- 2 degC by curative manner
[23] = system: Podosphaera fuliginea; experiment: Fungicidal activity against Podosphaera fuliginea assessed as cucumber powdery mildew control under greenhouse at 31.3 ppm foliar application 24 hr after inoculation on upper surface of leaf at 23 +/- 2 degC by curative manner
[24] = system: Pseudoperonospora cubensis; experiment: Fungicidal activity against Pseudoperonospora cubensis assessed as cucumber downy mildew disease control at 125 ppm foliar application 24 hr after inoculation on upper surface of leaf by curative manner
[25] = system: Pseudoperonospora cubensis; experiment: Fungicidal activity against Pseudoperonospora cubensis assessed as cucumber downy mildew disease control at 31.3 ppm foliar application 24 hr after inoculation on upper surface of leaf by curative manner
[26] = system: Pseudoperonospora cubensis; experiment: Fungicidal activity against Pseudoperonospora cubensis assessed as cucumber downy mildew disease control at 7.8 ppm foliar application 24 hr after inoculation on upper surface of leaf by curative manner
[27] = system: Pseudoperonospora cubensis; experiment: Fungicidal activity against Pseudoperonospora cubensis assessed as cucumber downy mildew disease control at 2 ppm foliar application 24 hr after inoculation on upper surface of leaf by curative manner
[28] = system: Botrytis cinerea; experiment: Fungicidal activity against Botryotinia fuckeliana assessed as cucumber gray mold disease control at 125 ppm foliar application 24 hr after inoculation at 22 +/- 2 degC measured after 3 days by curative manner

Compound | Activity [1] | Activity [2] | Activity [3] | Activity [4] | Activity [5] | Activity [6] | Activity [7] | Activity [8] | Activity [9] | Activity [10] | Activity [11] | Activity [12] | Activity [13] | Activity [14] | Activity [15] | Activity [16] | Activity [17] | Activity [18] | Activity [19] | Activity [20] | other results
CNC(=O)/C(=N/OC)c1ccccc1Oc1ccc(Cl)cc1 | 70% | 70% | 70% | 50% | 50% | 50% | 50% | 50% | 50% | 70% | 70% | 70% | 70% | 70% | 70% | 70% | 70% | 70% | 50% | 50% | Activity [21]: 50%; Activity [22]: 50%; Activity [23]: 50%; Activity [24]: 50%; Activity [25]: 50%; Activity [26]: 50%; Activity [27]: 50%; Activity [28]: 50%
CNC(=O)/C(=N/OC)c1ccccc1Oc1ccc(OC)cc1 | 70% | 70% | 70% | 50% | 50% | 50% | 50% | 50% | 50% | 70% | 70% | 70% | 70% | 70% | 70% | 70% | 70% | 70% | 50% | 50% | Activity [21]: 50%; Activity [22]: 50%; Activity [23]: 50%; Activity [24]: 50%; Activity [25]: 50%; Activity [26]: 50%; Activity [27]: 50%; Activity [28]: 50%
CNC(=O)/C(=N/OC)c1ccccc1Oc1ccc(I)cc1 | 70% | 70% | 70% | 50% | 50% | 50% | 50% | 50% | 50% | 70% | 70% | 70% | 70% | 70% | 70% | 70% | 70% | 70% | 50% | 50% | Activity [21]: 50%; Activity [22]: 50%; Activity [23]: 50%; Activity [24]: 50%; Activity [25]: 50%; Activity [26]: 50%; Activity [27]: 50%; Activity [28]: 50%
CNC(=O)/C(=N/OC)c1ccccc1Oc1cccc(Oc2ccccc2)c1 | 70% | 70% | 70% | 50% | 50% | 50% | 50% | 50% | 50% | 70% | 70% | 70% | 70% | 70% | 70% | 70% | 70% | 70% | 50% | 50% | Activity [21]: 50%; Activity [22]: 50%; Activity [23]: 50%; Activity [24]: 50%; Activity [25]: 50%; Activity [26]: 50%; Activity [27]: 50%; Activity [28]: 50%
CNC(=O)/C(=N/OC)c1ccccc1Oc1ccc(Cl)c(Cl)c1 | 70% | 70% | 70% | 50% | 50% | 50% | 50% | 50% | 50% | 70% | 70% | 70% | 70% | 70% | 70% | 70% | 70% | 70% | 50% | 50% | Activity [21]: 50%; Activity [22]: 50%; Activity [23]: 50%; Activity [24]: 50%; Activity [25]: 50%; Activity [26]: 50%; Activity [27]: 50%; Activity [28]: 50%
